According to US12503455B2, “Nucleic acid-binding photoprobes and uses thereof” (Arrakis Therapeutics, Inc., priority 2017, dated 2025):
Several values for one entry are separate records, joined by “and”; a condition that tells them apart may be missing. Identical values can stand only once. Entries after “also recorded” stand apart in the source; their conditions may differ.

Tests used:
[1] = biological target: Aptamer 21; assay: Surface plasmon resonance (SPR) binding to Aptamer 21; conditions: listed as ARK-139
Excerpt: Surface plasmon resonance (SPR) may be used to screen ligands and hook and click constructs for binding to a target RNA of interest. SPR is especially useful for monitoring biomolecular interactions in real time. Typically, target species and unrelated control are immobilized to a sensor chip, then analytes (compounds/fragments) are flowed over the surface. Binding of the compound to target species results in increase of SPR signal (association phase). Washing away bound compound with buffer results in a decrease of SPR signal (dissociation phase). Fitting of sensorgrams recorded at different compound concentrations is performed to an appropriate interaction model. The method allows extraction of kinetic parameters (ka, kd→KD). Requirements/limitations include that the ka/kd values be in reasonable ranges; and the target size must not be too large (<100 kDa). It is an excellent method to screen fragments and profile or validate hits. BC4000 may be used for primary screening (up to 4,000 data pts/week). Biacore T200 is suitable for hit profiling and validation.
In the PEARL-seq context, SPR allows monitoring binding of “hooks” to DNA/RNA aptamers. The target species is immobilized to sensor chip, analytes (i.e. hooks) are flowed over surface (association phase), DNA/RNA aptamer is flowed over surface (plateau phase), competitor compound is washed over surface (dissociation phase), thus yielding binding data.
Experiments were performed on a MASS-2 (Sierra Sensors) at 25° C. A high capacity amine chip was equilibrated with PBS. The chip was conditioned with alternating injections of 10 mM HCl and 10 mM NaOH in 1 M NaCl. The carboxymethylated dextran of the surface of the amine chip was activated for 7 minutes at a flow rate of 10 μL/min using a 1:1 volume ratio of 0.4 M 1-ethyl-3-(3-dimethylaminopropyl) carbodiimide (Sierra) and 0.1 M N-hydroxysuccinimide (Sierra). Neutravidin (70 μg/mL, Thermofisher) was injected over the activated surface for 10 minutes at a flow rate of 10 μl/min. Excess activated groups were blocked by an injection of 1 M ethanolamine, pH 8.5 (Sierra) for 7 minutes at a flow rate of 10 μl/min. A final injection of 10 mM NaOH in 1 M NaCl for 7 minutes at 10 μl/min was used to remove any unbound material to the chip. The immobilization reaction typically yielded approximately 12,000 resonance units (RU) of neutravidin. At least one spot in a channel was not injected with RNA and was used as a background control. Unrelated RNA was also used as a background control.
A 1 μM sample of biotin-aptamer 21 was prepared in RNAse free water, heated to 95° C. for 3 minutes, cooled on ice for 4 minutes, diluted with an equal volume 2× folding buffer (40 mM Tris-HCl, pH 8.0, 6 mM MgCl2, 200 mM KCl), and incubated at 37° C. for 30 minutes. The final concentration of RNA was 0.5 μM.
The MASS-2 was primed 2 times with 20 mM Tris-HCl, pH 8.0, 3 mM MgCl2, 100 mM KCl (Capture Buffer). RNA was injected over the neutravidin surface for 7 minutes at a flow rate of 10 μl/min. Capture levels typically reached approximately 3500-4500 of resonance units of aptamer 21.
Compounds were diluted 2-fold in 100% DMSO at a starting concentration of 500 μM.
The MASS-2 was primed 2 times with 20 mM Tris-HCl, pH 8.0, 3 mM MgCl2, 100 mM KCl, 1% DMSO (running buffer). Prior to testing compounds 3 injections of running buffer were used to equilibrate the sensor surface. […]

[2] = cited from earlier work
[3] = tested on: Aptamer 21-E; assay: SHAPE-MaP on Aptamer 21-E with and without ligand; conditions: suggesting weak binding
Method: The SHAPE-MaP approach exploits conditions that cause reverse transcriptase to misread SHAPE-modified nucleotides and incorporate a nucleotide non-complementary to the original sequence into the newly synthesized cDNA. The positions and relative frequencies of SHAPE adducts are recorded as mutations in the cDNA primary sequence. In a SHAPE-MaP experiment, the RNA is treated with a SHAPE reagent or treated with solvent only, and the RNA is […]. RNA from each experimental condition is reverse-transcribed, and the resulting cDNAs are then sequenced. […]
SHAPE-MaP can be performed and analyzed according to detailed published methods (Martin et al., RNA 2012; 18:77-87; McGuinness et al., J. Am. Chem. Soc. 2012; 134:6617-6624; Siegfried et al., Nature Methods 2014; 11:959-965; Lavender et al., PLoS Comput. Biol. 2015; 11(5)e1004230; McGuinness et al., Proc. Natl. Acad. Sci. USA 2015; 112:2425-2430). The SHAPE-MaP sequence data can be analyzed using ShapeFinder (Vasa et al., RNA 2008; 14:1979-1990) or ShapeMapper (Siegfried et al., Nature Methods 2014; 11:959-965) or other software. […]
For all SHAPEware analysis, reads were adapter-trimmed aligned as previously described (https://bitbucket.org/arrakistx/shapeware/src) using Trimmomatic (http://dx.doi.org/10.1093/bioinformatics/btu170) and bwa-mem (https://arxiv.org/abs/1303.3997), respectively. […]

Which Kd ([1]; binding to Aptamer 21, read-out: calculated KD by SPR) does the source give for `COC(=O)C1=C(COCc2cn(CCOCCOCCO)nn2)NC(c2ccncc2)=NC1c1ccc(F)cc1Cl` (racemic) [I-1] here?
The Kd was 568 nM and 420 nM.

And the “binding to Aptamer 21 by SPR” value [1]?
Its value is “binds; also recorded: SPR-active”.

What about the water solubility [2] of the same compound?
Its water solubility is “water-soluble”.

And the “alteration in SHAPE reactivity of Aptamer 21-E in presence of ligand” value [3]?
Its value is “almost no alteration”.
